The values below come from patent publication US20240426824A1, “METHODS RELATING TO TREATMENT OF ACUTE MYELOID LEUKEMIA” (BOARD OF REGENTS, THE UNIVERSITY OF TEXAS SYSTEM, priority 2021, published 2024).

The subject of one assay is MV4-11 VTX-sen cell line. Description: Immunoblot protein expression after VTX treatment, MV4-11 cells. The format is cell-based. The conditions noted are these: 24 hours post treatment with VTX, identical experimental conditions. As to the method: Protein expression validation in AML cell lines. MOLM-13 parental and VTX-resistant cells were the kind gift of Dr. Marina Konopleva (MD Anderson Cancer Center; Houston, TX, USA). OCI-AML-3, KG-1, and MV4-11 cells were obtained from the Leukemia Sample Bank (LSB) at MD Anderson. For protein expression comparison in cell lines, immunoblot analysis was performed. Cells were boiled and sonicated in lysis buffer and protein (1.5×10^5 cell equivalents) was subjected to electrophoresis using SDS/PAGE. Immunoblot analysis was performed with antibodies against CBL (BD Transduction Lab), PRKCB.pS660 (Cell Signaling, Beverly, MA), SYK (Santa Cruz, Dallas, TX), PKM2 (Cell Signaling), STAT3.pS727 (Cell Signaling), Beta-Actin (Sigma Aldrich, St. Louis, MO), GADPH (Ambion, Austin, TX) and Alpha-Tubulin (Sigma Aldrich). Signals were detected by using the ProteinSimple FluorChem imaging system and quantified by AlphaView software. Beta-Actin, GAPDH, and Alpha-Tubulin were used as loading controls. Densitometry was calculated as protein expression/expression of housekeeping gene, relative to the control.
The above findings were validated by looking for similar responses in cell lines in vitro in response to VTX exposure. […]
On the technique in general: A western blot detects proteins with antibodies after separation by electrophoresis.

For assay [1], the system named is adult patients with newly diagnosed AML. Briefly: Clinical outcome of VTX-containing induction chemotherapy, clusters by 36-protein classifier (Example 2). Type of assay: in vivo, human. The text has this: Sample Collection and Processing. Peripheral blood (PB) and bone marrow (BM) samples were collected from 818 adult patients with newly diagnosed AML, of which 143 received VTX-containing induction chemotherapy, evaluated at the University of Texas MD Anderson Cancer Center (MDACC) between January 2012 and July 2020. Informed consent was obtained in accordance with the Declaration of Helsinki. Samples were processed and analyzed under an Investigational Review Board (IRB) approved laboratory protocol (Lab 06-0565).
Following data normalization, a cohort of 143 patients that received VTX-containing induction chemotherapy was identified for separate analysis for the purposes of this manuscript. Survival curves were generated by Kaplan-Meier method and survival data was analyzed by multivariate cox regression model. [Refs. 12, 13] Protein expression signatures were identified by hierarchical Progeny clustering. [Ref. 14] Correlations between clustered protein signatures and clinical features were assessed using Fisher's exact test for categorical variables and the Kruskal-Wallis test for continuous variables. Multivariate analysis for survival outcomes OS and RD was performed by Cox regression model. Median protein expression within clusters was compared to median expression in the normal controls to identify significant expression trends with the Wilcoxon test. Protein networks were built using Cytoscape (version 3.9.1) combining literature-based protein interactions queried from the STRING database and proteomic-based interactions inferred from the RPPA data derived from Pearson correlation. [Ref. 11] Predictive classifier models were assembled in Python using the random forest machine learning technique. All bioinformatics and analysis were performed in Rstudio (version 1.3.1093) with R (version 4.1.2).
A cohort of 143 patients that received VTX as a component of induction chemotherapy was identified, of which 27 received VTX combined with high-dose cytarabine (Ara-C), 29 combined with low- or standard-dose Ara-C, […], 6 with high-dose Ara-C and a hypomethylating agent, and 12 combined with targeted therapy (5 FLT3 inhibitors, 5 IDH inhibitors, 2 TP53 inhibitors). In the VTX cohort, 5 patients were not treated at MDACC leaving 138 patients evaluable for outcome and further analysis. Median age at diagnosis was 68 years (range 18-90 years) with median follow-up 58 weeks (range 2-396 weeks). […] Patient demographic, diagnostic labs, (data not shown) treatment, and outcome data was compiled to be analyzed against protein expression data.
Next, recurring patterns of expression were identified across the 36 proteins correlated to OS (FIGS. 3A and 3B) by applying the Progeny clustering algorithm utilizing k-means, and unbiased hierarchical clustering [Ref. 14] identifying three distinct protein expression patterns Cluster 1 (C1; n=41), Cluster 2 (C2; n=63), and Cluster 3 (C3; n=39). Protein expression was somewhat heterogeneous between clusters for several proteins, namely AR, STAT3.pY705, and RAF1.pS338. Expression of CDKN1B and CDKN1B.pS10 were nearly universally high in AML samples relative to the CD34+ controls, albeit phosphorylated CDKN1B was relatively higher in C1 members. While universally low across AMVL samples, ASH2L and MSH6 were relatively lower in the C1 signature as were PRMT1, MAPK14.pT180, HSF1.pS326, EIF4EBP1.pS65, EIF2AK2, and WDR5. The C3 signature was marked by relatively high expression of PrMT1, KMT2D, STAT3.pS727, EP300, and TSC2 and relatively low expression in AKR1C3, YWHAE, TNK1, COPS5, ATF3, SGK1, VTCN1, TNFRSF4, and PEA15.

The next assay relates to adults with AML. Description: Clinical outcome of VTX treated patients, clusters by 44-protein classifier (Example 1). Type of assay: in vivo, human. As to the method:
Reverse Phase Protein Array (RPPA) as described by Tibes et al. 2006 and Kornblau et al. 2011 was performed on leukemia blast enriched fractions prepared from diagnostic samples of 818 adults with AML, of which 143 were treated with venetoclax (VTX) including 33 in combination with high dose Ara-C, 5 with standard dose Ara-C, 50 with hypomethylating agents (HMA), and 13 with HMA and targeted therapy (either CPX-351 liposome, a dual-drug liposomal encapsulation of cytarabine and daunorubicin, or anthracycline). Protein expression levels were evaluated using 390 validated antibodies against total and post translationally modified (phosphorylated, methylated, cleaved) as described by Hoff et al. 2019. proteins and were analyzed in the context of clinical data compiled by retrospective chart review. Pearson correlation was used to identify significant protein-protein correlations. Survival curves were generated by the Kaplan-Meier method and survival data was analyzed by multivariate cox regression model. Protein expression signatures were identified by hierarchical clustering and predictive models of protein classifiers were determined by classification and regression trees (CART) analysis.
We queried the 390 proteins (Table 1) assayed in the 143 VTX treated patients to identify proteins individually prognostic for overall survival (OS) or remission duration (REMDUR) and identified 27 proteins correlated with OS (p<0.01) and 44 proteins correlated with REMDUR (p<0.01). Neither MCL1, BCLXL nor BCL2 expression at diagnosis were prognostic of overall survival (OS) or remission duration (REMDUR).

On to `CC1(C)CCC(CN2CCN(c3ccc(C(=O)NS(=O)(=O)c4ccc(NCC5CCOCC5)c([N+](=O)[O-])c4)c(Oc4cnc5[nH]ccc5c4)c3)CC2)=C(c2ccc(Cl)cc2)C1` [VTX, venetoclax], for which, in the assay with MV4-11 VTX-sen cell line, the “reduction in the expression of PKM2” value is listed as greater than 50%. Further, the “median OS” value was 182.7 weeks in assay [1] (C1), 55.1 weeks in assay [1] (C2) and 35.7 weeks in assay [1] (C3). The relapse rate is 21.9% in assay [1] (C1, patients that achieved remission (n=32)); 42.5% in assay [1] (C2, patients that achieved remission (n=40)); 66.7% in assay [1] (C3, patients that achieved remission (n=18)). Also, the median remission duration in assay [1] (C2) is given as 129 weeks; in assay [1] (C3), 39 weeks. The Remission rate was 82% in assay [1] (Cluster 1 (C1)); 70% in assay [1] (Cluster 2 (C2)); 50% in assay [1] (Cluster 3 (C3)); 61% with adults with AML (cluster 1); 77% in the assay with adults with AML (cluster 2). In addition, the “Remission (CR/CRi) achieved” value in assay [1] (all evaluable patients (138), n=90) is 65%. Also, the “relapsed, of patients in remission” value in assay [1] (of 90 patients in remission, n=36) is on record as 40%. The figures for the “relapse risk (RR) at 1-yr” value in the assay on adults with AML (cluster 1) and in the assay on adults with AML (cluster 2) were 45% and 18%, respectively. Further, the “estimated 3-yr overall survival” value with adults with AML (cluster 1 (n=102)) was 27%; in the assay with adults with AML (cluster 2 (n=41)) it was 66%.
